target: human MGL from HeLa cells (Homo sapiens (Human), UniProt Q99685); test: MGL in vitro activity assay ([glycerol-1,3-3H]-oleoyl glycerol hydrolysis, activated carbon filtration); type: biochemical; conditions: 300 nM [Glycerol-1,3-3H]-oleoyl glycerol, one hour
Procedure, shortened: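 Endogenous human MGL in HeLa cells/homogenates incubated 1 h with test compounds and 300 nM [glycerol-1,3-3H]-oleoyl glycerol. Released 3H-glycerol passing an activated carbon filter counted as activity; screening at 10 μM compound, top IC50 concentration set empirically.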

human MGL from HeLa cells, sequence (Q99685 whole entry): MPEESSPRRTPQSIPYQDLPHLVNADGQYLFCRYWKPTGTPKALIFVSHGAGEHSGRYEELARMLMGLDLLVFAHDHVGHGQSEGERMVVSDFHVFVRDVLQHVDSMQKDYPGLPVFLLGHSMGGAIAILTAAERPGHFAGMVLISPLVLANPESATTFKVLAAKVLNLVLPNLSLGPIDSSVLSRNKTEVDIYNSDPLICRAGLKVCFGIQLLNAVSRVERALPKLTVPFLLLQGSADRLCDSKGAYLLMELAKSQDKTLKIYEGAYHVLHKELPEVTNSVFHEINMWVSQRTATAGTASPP

SMILES | IC50 [nM]
C[C@]1(O)C[C@@H](C(=O)N2CC3(CC[C@@H](c4cccc(C5CC5)c4F)C3)C2)C1 (stereo in doubt) [Example 25, ((*R)-6-(3-Cyclopropyl-2-fluorophenyl)-2-azaspiro[3.4]octan-2-yl)((1s,3*S)-3-hydroxy-3-methylcyclobutyl)methanone] | 4
C[C@]1(O)C[C@@H](C(=O)N2CC3(CC[C@H](c4cccc(C5CC5)c4F)C3)C2)C1 (stereo in doubt) [Example 26, ((*S)-6-(3-Cyclopropyl-2-fluorophenyl)-2-azaspiro[3.4]octan-2-yl)((1s,3*R)-3-hydroxy-3-methylcyclobutyl)methanone] | 28
C[C@]1(O)C[C@@H](C(=O)N2CC3(CC[C@@H](c4cccc(OC(F)(F)F)c4)C3)C2)C1 (stereo in doubt) [Example 41, ((1s,3*S)-3-Hydroxy-3-methylcyclobutyl)((*R)-6-(3-(trifluoromethoxy)phenyl)-2-azaspiro[3.4]octan-2-yl)methanone] | 23
C[C@]1(O)C[C@@H](C(=O)N2CC3(CC[C@H](c4cccc(OC(F)(F)F)c4)C3)C2)C1 (stereo in doubt) [Example 42, ((1s,3*R)-3-Hydroxy-3-methylcyclobutyl)((*S)-6-(3-(trifluoromethoxy)phenyl)-2-azaspiro[3.4]octan-2-yl)methanone] | 22
CC(C)(C)c1cccc([C@@H]2CCC3(C2)CN(C(=O)[C@H]2C[C@@](C)(O)C2)C3)c1 (stereo in doubt) [Example 44, ((*R)-6-(3-(tert-Butyl)phenyl)-2-azaspiro[3.4]octan-2-yl)((1s,3*S)-3-hydroxy-3-methylcyclobutyl)methanone] | 9.8
CC(C)(C)c1cccc([C@H]2CCC3(C2)CN(C(=O)[C@H]2C[C@@](C)(O)C2)C3)c1 (stereo in doubt) [Example 45, ((*S)-6-(3-(tert-Butyl)phenyl)-2-azaspiro[3.4]octan-2-yl)((1s,3*R)-3-hydroxy-3-methylcyclobutyl)methanone] | 11
CC(C)c1cccc([C@@H]2CCC3(C2)CN(C(=O)[C@H]2C[C@@](C)(O)C2)C3)c1 (stereo in doubt) [Example 47, ((1s,3*S)-3-Hydroxy-3-methylcyclobutyl)((*R)-6-(3-isopropylphenyl)-2-azaspiro[3.4]octan-2-yl)methanone] | 21
CC(C)c1cccc([C@H]2CCC3(C2)CN(C(=O)[C@H]2C[C@@](C)(O)C2)C3)c1 (stereo in doubt) [Example 48, ((1s,3*R)-3-Hydroxy-3-methylcyclobutyl)((*S)-6-(3-isopropylphenyl)-2-azaspiro[3.4]octan-2-yl)methanone] | 17
C[C@]1(O)C[C@@H](C(=O)N2CC3(CC[C@@H](c4ccc(OC(F)(F)F)cc4)C3)C2)C1 (stereo in doubt) [Example 53, ((1s,3*S)-3-Hydroxy-3-methylcyclobutyl)((*R)-6-(4-(trifluoromethoxy)phenyl)-2-azaspiro[3.4]octan-2-yl)methanone] | 10
C[C@]1(O)C[C@@H](C(=O)N2CC3(CC[C@H](c4ccc(OC(F)(F)F)cc4)C3)C2)C1 (stereo in doubt) [Example 54, ((1s,3*R)-3-Hydroxy-3-methylcyclobutyl)((*S)-6-(4-(trifluoromethoxy)phenyl)-2-azaspiro[3.4]octan-2-yl)methanone] | 10
C[C@]1(O)C[C@@H](C(=O)N2CC3(CC[C@@H](c4ccc(C(F)(F)F)cc4)C3)C2)C1 (stereo in doubt) [Example 56, ((1s,3*S)-3-Hydroxy-3-methylcyclobutyl)((*R)-6-(4-(trifluoromethyl)phenyl)-2-azaspiro[3.4]octan-2-yl)methanone] | 22
C[C@]1(O)C[C@@H](C(=O)N2CC3(CC[C@H](c4ccc(C(F)(F)F)cc4)C3)C2)C1 (stereo in doubt) [Example 57, ((1s,3*R)-3-Hydroxy-3-methylcyclobutyl)((*S)-6-(4-(trifluoromethyl)phenyl)-2-azaspiro[3.4]octan-2-yl)methanone] | 24
